In ChEMBL document CHEMBL1150370, “Pestaloficiols A-E, bioactive cyclopropane derivatives from the plant endophytic fungus Pestalotiopsis fici” (Bioorg Med Chem, 2008) one finds EC50 and CC50 data, which are given here for four compounds.

Structures are written as SMILES. Where a name gives a salt, the structure may show the parent alone. Bounds are passed on as bounds.

The test system of series [1] is Human immunodeficiency virus 1. As to the kind of experiment: Antiviral activity against HIV1 in human C8116 cells assessed as reduction of p24 protein level after 4 days by ELISA. The class given is functional, organism-based. Particulars: Human immunodeficiency virus 1, C8116, 96 h.
Series [2] is described as follows: Cytotoxicity against human C8116 cells after 4 days by MTT assay. It is filed as cell-based. For orientation: Tetrazolium dyes change colour on reduction, which living cells bring about.

What is called EC50 is the concentration that produces a half-maximal response. One may read the CC50 as the concentration at which the toxic effect on the cells reaches its halfway point.

With `CC(C)(C)NC(=O)[C@@H]1CN(Cc2cccnc2)CCN1C[C@@H](O)C[C@@H](Cc1ccccc1)C(=O)N[C@H]1c2ccccc2C[C@H]1O` [INDINAVIR SULFATE], the EC50 in series [1] amounted to 0.00881 µM. As for `CC1(C)CC(=O)C2=C(O1)[C@@]13C[C@@H]1C(C)(C)O[C@H]3[C@@H](O)C2` [PESTALOFICIOL A], the EC50 in series [1] came out at 26 µM. Moreover, the CC50 at 96 h in series [2] is > 200 µM. For `CC1(C)CC(=O)C2=C(O1)[C@]1(C[C@@H]1C(C)(C)O)[C@@H](O)[C@@H](O)C2` [PESTALOFICIOL B] the same measures were 26 µM and > 200 µM. In the same order, the values of `CC1(C)CC(=O)C2=C(O1)[C@@]1(C[C@H]1C(C)(C)O)[C@@H](O)[C@@H](O)C2` [PESTALOFICIOL D] are 26 µM and > 200 µM.
